Test results from article PMC12175168, “Refining the Amino Reactivity-Based Identification of Respiratory Sensitizers” (Chemical Research in Toxicology, 2025).
Where “and” joins values, the source holds several entries; their conditions need not be identical. Identical values can stand only once. Entries after “also recorded” stand apart in the source; their conditions may differ. Like-named read-outs stand apart in the source and are kept apart here. Marks after values point to notes of the source that are not given here.

Columns and labels:
[1] = Stability assessment of test compounds in aqueous buffers (half-lives)
Protocol: To this end, the test compound was dissolved in 1 mL ACN in a glass vial. […] As reaction batches, 1.8 mL glass vials equipped with 400 μL glass inserts were used and filled with 220 μL of the respective aqueous buffer and 80 μL of the test compound stock solution. The depletion of the test compounds was recorded with the HPLC UV–vis instrument used for the kinetic Gly-pNA chemoassay. , Chromatographic separation of the reaction mixture was achieved using the gradient described for the Gly-pNA chemoassay previously , and an isocratic HPLC method (water/ACN 70:30, both with 0.1 vol % formic acid). The wavelengths used for the detection of the compound and the information on the used chromatographic method are given in the Supporting Information in Table S3.

[2] = ref Krutz et al., Sadekar et al., Ponder et al., Karol et al., Hopkins et al.; cited from earlier work
[3] = DPRA-like chemoassay with Lys-pNA (24 h percent depletion); conditions: 25 °C, 50-fold excess of test compound
Protocol: (§1) In addition to the kinetic Gly-pNA chemoassay, the reactivity of the 27 compounds toward Gly-pNA and Lys-pNA was determined in terms of percentage depletions after reacting for 24 h at 25 °C employing the following DPRA-like setup: stock solutions for the test compounds were prepared by gravimetrically adding at least 3 mg of the respective compound into a glass vial (total volume 1.8 mL) and subsequent addition of 1 mL ACN. […] The stock solutions for Gly-pNA and Lys-pNA with a final concentration of 1.7 mM were prepared by dissolving the required amount in one of the three aqueous buffer solutions used for this DPRA-like chemoassay: phosphate buffer (80 mM, pH 7.4), phosphate buffer (80 mM, pH 10.2), and ammonium acetate buffer (100 mM, pH 10.2). Glass vials (1.8 mL) were used as reaction vessels.
(§2) In the final reaction mixtures, the concentration of Gly-pNA or Lys-pNA was 0.03 mM, and the test compound was 50 times in excess (1.5 mM). After incubation for 24 h at 25 °C, the free amount of either Gly-pNA or Lys-pNA was determined using the HPLC UV–vis method described for the kinetic Gly-pNA chemoassay. , The percentage depletion of Gly-pNA (D Gly) or Lys-pNA (D Lys) was determined directly from peak areas according to eq 3 Dx[%]=(Axcontrol−Ax/Axcontrol×100)withx=GlyorLys
(§3) In eq , A x and A x ^control are the peak areas of the chromatographic signal of either Gly-pNA (x = Gly) or Lys-pNA (x = Lys) at 315 nm after 24 h incubation with and without test compound, respectively.
(§4) Summary of experimental conditions of the DPRA-like setups used to determine
(§5) DGly, D Lys, and D DPRA data in Table 2 (main text).
(§6) Table S2. Overview of experimental conditions for the DPRA-like setups used to
(§7) determine 24 h percentage depletion rates for the reaction of the test compounds with
(§8) Gly-pNA, Lys-pNA, and the DPRA lysine peptide (literature data).

[4] = tested on: DPRA lysine peptide; design: method as in literature; conditions: AAB pH 10.2, 24 h; ref literature; cited from earlier work
[5] = DPRA-like chemoassay with Gly-pNA (24 h percent depletion); conditions: PPB pH 7.4, 24 h, 25 °C, 50-fold excess of test compound
Protocol: as §1, §2, §3, §4, §5, §6, §7, §8

[6] = Kinetic Gly-pNA chemoassay (second-order rate constant k Gly); conditions: reaction with Gly-pNA, nominal test compound concentration; for k Gly ± s(k Gly), second-order rate constant: phosphate buffer 80 mM, 25 °C, ≥ values are minimum reactivity; for log k Gly: phosphate buffer;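 on all read-outs here: Gly-pNA depletion followed over time by chromatographic peak area, with test compound in at least tenfold excess (pseudo-first-order), added from acetonitrile stock, at least three runs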
Protocol: The reactivity of the 27 test compounds toward Gly-pNA was quantified in terms of the second-order reaction rate constant k Gly using our Gly-pNA chemoassay. , In brief, stock solutions of the test compound were freshly obtained every day by gravimetrically adding the required amount into a 10 mL volumetric flask, which was subsequently filled to volume with acetonitrile (ACN). The required amounts of test compounds depended on their reactivity toward Gly-pNA. […] As usual for kinetic studies, fast reacting chemicals are applied at lower concentrations than little reactive candidates. All stock solutions were stored at 25 °C in a climate chamber before first use (ca. 30 min) and for repeating an experiment (max. 6 h). Gly-pNA stock solution (1.69 mM) was obtained by dissolving 3.3 mg Gly-pNA in 10 mL phosphate buffer solution (80 mM) and could be used for several weeks if stored at 4 °C. For all chemoassay experiments, 1.8 mL glass vials were used as reaction batches, which were initially filled with 1070 μL phosphate buffer (80 mM) and 30 μL Gly-pNA stock solution. To start the reaction, 400 μL of the test compound stock solutions was added. […] The time between the start of the reaction and the first analysis was measured with an electronic time clock. All reactions were performed under pseudo-1st order conditions with the electrophile being at least ten times in excess over Gly-pNA.
For these compounds, the minimum reactivity was estimated in terms of k Gly by plotting ln (A Gly ^ t /A Gly ^0) vs reaction time t (with A Gly ^ t and A Gly ^0 being the peak areas under the chromatographic signal for Gly-pNA at time t and at the beginning of the reaction (t = 0)). Linear regression through 0 (at t = 0) and the first measurement point yields slope s (see Figure S1) which is the pseudo-1st order rate constant k Gly ^pseudo that can be converted with the initial test compound concentration in the reactions mixture (c) into k Gly according to eq . 1 kGly=kGlypseudo/c
2 Ln(AGlyt/AGly0)≈−kGly·c·t+0.5·kGly·kloss·c·t^2 Here k loss is the first order rate constant covering all processes contributing to the loss of the test compounds, except the reaction with Gly-pNA. The regression parameter of the linear part of eq (= k Gly·c) is the pseudo-1st order rate constant k Gly ^pseudo and can be converted into k Gly according to eq (see above).
Linear regression of these plots provides slope s, which is again the pseudo-1st order rate constant, k Gly ^pseudo, and can be used to calculate k Gly according to eq . All experiments to determine k Gly have been conducted at least three times.

[7] = design: method as in our previous work; conditions: reaction with Gly-pNA; ref our previous work; cited from earlier work
[8] = design: method as in our previous work; conditions: PPB pH 7.4, 24 h; ref our previous work; cited from earlier work
[9] = PPB (phosphate buffer 80 mM) pH 7.4
[10] = AAB (ammonium acetate buffer) pH 10.2, 24 h
[11] = buffer, pH 10.2, half-lives t 1/2 ± s(t 1/2), AAP (ammonium acetate buffer 100 mM) pH 10.2
[12] = buffer, pH 10.2, half-lives t 1/2 ± s(t 1/2), PPB (phosphate buffer 80 mM) pH 10.2

Row | SMILES | half-lives t 1/2 ± s(t 1/2) ([1]; AAP (ammonium acetate buffer 100 mM) pH 10.2) | half-lives t 1/2 ± s(t 1/2) [1, 9] | half-lives t 1/2 ± s(t 1/2) ([1]; PPB (phosphate buffer 80 mM) pH 10.2) | Classification as potential respiratory sensitizer or non-sensitizer [2] | D Lys ± s(D Lys), 24 h percent depletion of Lys-pNA [3, 10] | D Lys ± s(D Lys), 24 h percent depletion of Lys-pNA ([3]; PPB pH 10.2, 24 h) | D DPRA ± s(D DPRA), depletion of the DPRA lysine peptide [4] | D Gly ± s(D Gly), 24 h percent depletion of Gly-pNA [5] | k Gly ± s(k Gly), second-order rate constant [6] | half-life [1, 11] | half-life [1, 12] | log k Gly [6] | half-life ([1]; aqueous ammonium acetate buffer with acetonitrile, pH 10.2) | half-life ([1]; aqueous phosphate buffer with acetonitrile, pH 10.2) | k Gly ± s(k Gly), second-order rate constant [7] | log k Gly [7] | D Gly, 24 h percent depletion of Gly-pNA [8]
1 | O=[N+]([O-])c1ccc(S(=O)(=O)O)c([N+](=O)[O-])c1 [E5, 2,4-dinitrobenzenesulfonic acid] | did not show any significant signal depletion; also recorded: no depletion | no depletion | no depletion | non-sensitizer | 0.9 ± 0.1% | 0% | 27.4% | 5.9% and 5.9 ± 0.3% | not reactive |  |  |  |  |  |  |  | 
2 | C=CC(=O)OC [F2, methyl acrylate] |  | no depletion |  | non-sensitizer | 55.5 ± 0.7% | 67.9 ± 1.6% | 86.5 ± 5.2% | 16.6 ± 0.4% | 0.108 ± 0.005 L mol^–1 min^–1 | 629 ± 48 min | 943 ± 63 min | –0.97 |  |  |  |  | 
3 | C=CC(=O)OCCCC [F3, butyl acrylate] |  | no depletion |  | non-sensitizer | 61.3 ± 0.4% | 74.4 ± 1.5% | 87.8 ± 3.8% | 15.2 ± 0.2% | 0.0826 ± 0.0141 L mol^–1 min^–1 | 929 ± 59 min | 4250 ± 1800 min | –1.08 |  |  |  |  | 
4 | C=CC(=O)OCC [F4, ethyl acrylate] |  | no depletion |  | non-sensitizer | 55.8 ± 0.4% | 67.1 ± 1.4% | 90.3 ± 6.6% | 14.4 ± 0.6% | 0.0795 ± 0.0001 L mol^–1 min^–1 |  |  |  | 880 ± 119 min | 1350 ± 172 min |  |  | 
5 | O=CCCCC=O [G1, glutaraldehyde] |  |  |  |  | 7.2 ± 1.7% | 97.9 ± 0.6% | 82.8 ± 7.6% |  |  |  |  |  |  |  | 17731 ± 2525 L mol^–1 min^–1 | 4.25 | 100 ^c %
